Legend:
[1] = system: Staphylococcus aureus (H-Heatley strain, NRRL B-314); test: Bioassay for antibacterial activity; type: cell-based
Source text: The compounds of this invention are useful antibacterial agents. In this aspect, these compounds may be used in the same manner in which the parent antibiotic is used, as described in U.S. Pat. No. 3,923,823. A bioassay for the antibacterial activity of A-23187 has been described by J. E. Westhead in Antimicrobial Agents and Chemotherapy 11 (5), 916-918 (1977). The test organism for this bioassay is Staphylococcus aureus (H-Heatley strain, NRRL B-314).

[2] = Acute toxicity in mice, intraperitoneal; settings: mouse, in vivo, ip
Experimental: The compounds of the present invention are, in general, less toxic than the parent antibiotic. Table II summarizes the acute toxicities of representative compounds in mice, expressed as LD50, when the compounds are administered intraperitoneally.

[3] = molecular target: cation transport ATPase in liver mitochondria; test: In vitro inhibition of cation transport ATPase in liver mitochondria; type: biochemical
Source text: In yet another aspect, the compounds of this invention are active as inhibitors of the enzyme ATPase. ATPase, an alkali-metal-sensitive enzyme found in cell membranes, is involved in the energy necessary for active transport. "Active transport" refers to the energy-requiring series of operations whereby intracellular and extracellular fluids maintain their compositions. Inhibitors of ATPase reduce the energy required for active transport. Table III summarizes the results of in vitro tests measuring inhibition of cation transport ATPase in liver mitochondria [measured as half effective concentration (Ic50) in mcg/ml].

[4] = cited from earlier work
[5] = Pfeiffer and Lardy, Biochemistry 15, 935 (1976)

Row | SMILES | Bioassay [1] [µg/mL] | LD50 [2] [mg/kg] | half effective concentration (Ic50), ATPase induced by CaCl2 [3] [µg/mL] | half effective concentration (Ic50), ATPase induced by K^+ monazomycin [3] [µg/mL] | discrimination for divalent over monovalent cations [4, 5] | transport of Mg^2+ versus Ca^2+ [4, 5] | selectivity for transport of divalent over monovalent cations ([4]; background, among approximately 100 known ionophores)
1 | CNc1ccc2oc(CC3OC4(CCC3C)OC(C(C)C(=O)c3cc(Br)c(Br)[nH]3)C(C)CC4C)nc2c1C(=O)O (stereo not drawn) [23,24-dibromo-A-23187 (free acid), 5-(methylamino)-2-[[3β,9α,11β-trimethyl-8-[1α-methyl-2-oxo-2-(4,5-dibromo-1H-pyrrol-2-yl)ethyl]-1,7-dioxaspiro[5.5]undec-2β-yl]methyl]-4-benzoxazolecarboxylic acid] | 1105 | 79.8 | 0.8 | 0.1 |  |  | 
2 | CNc1ccc2oc(CC3OC4(CCC3C)OC(C(C)C(=O)c3cc(Br)c[nH]3)C(C)CC4C)nc2c1C(=O)O (stereo not drawn) [23-bromo-A-23187 (free acid), 5-(methylamino)-2-[[3β,9α,11β-trimethyl-8-[1α-methyl-2-oxo-2-(4-bromo-1H-pyrrol-2-yl)ethyl]-1,7-dioxaspiro[5.5]undec-2β-yl]methyl]-4-benzoxazolecarboxylic acid] | 1766 | 23.7 | > 10 | 0.1 |  |  | 
3 | CNc1ccc2oc(CC3OC4(CCC3C)OC(C(C)C(=O)c3ccc[nH]3)C(C)CC4C)nc2c1C(=O)O (centres unmarked) [A-23187 (free acid), reference compound] | 1060 |  | 0.5 | 0.5 | not complete | transports Mg^2+ with a similar efficiency to Ca^2+ | substantially selective for the transport of divalent over monovalent cations
